In patent US10561658B2, “Thieno- and pyrrolopyrimidine analogues as anticancer agents and methods of use thereof” (UNIVERSITY OF MARYLAND, BALTIMORE COUNTY, priority 2015, dated 2020):

Assays:
[1] = test system: murine leukemia L1210 cells; assay: Cell proliferation assay, L1210; assay type: cell-based; conditions: Mus musculus, 48 h proliferation, Coulter counter, read-out: IC50 L1210
Method: (§1) Cell proliferation assays for several of the compounds were performed on L1210, a mouse lymphocytic leukemia cell line; CCRF-CEM [39] an acute lymphoblastic leukemia cell line; and HeLa, a human cancer cell line derived from a human cervical adenocarcinoma. Murine Leukemia L1210, human lymphocytic CEM and human cervix carcinoma HeLa cells were obtained from the American Type Culture Collection (ATCC) (Rockville, Md.). All assays were performed in 96-well microtiter plates. To each well were added (5-7.5)×10^4 tumor cells and a given amount of the test compound. The cells were allowed to proliferate for 48 h (murine leukemia L1210 cells) or 72 h (human lymphocytic CEM and human cervix carcinoma HeLa cells) at 37° C. in a humidified CO2-controlled atmosphere. At the end of the incubation period, the cells were counted in a Coulter counter. The IC50 (50% inhibitory concentration) was defined as the concentration of the compound that inhibited cell proliferation by 50%. […] Presence of C7 iodine on the 2,4-dichloro pyrrolo[3,2-d] (compound 20) increases the anticancer activity by a factor of 5 when compared to compound 19. […] This alludes to a) importance of C7-I towards activity against cancer cell lines for the 2,4-O-benzylated analogues (15 and 16).

[2] = test system: human lymphocytic CEM cells; assay: Cell proliferation assay, CEM; assay type: cell-based; conditions: CCRF-CEM, 72 h proliferation, Coulter counter
Method: as §1

[3] = test system: human cervix carcinoma HeLa cells; assay: Cell proliferation assay, HeLa; assay type: cell-based; conditions: 72 h proliferation, Coulter counter
Method: as §1

[4] = test system: Escherichia coli ATCC 25922; assay: Antimicrobial growth inhibition, E. coli; assay type: cell-based; conditions: ATCC25922; Escherichia coli ATCC 25922, 100 μM
Method: (§2) Evaluation of antimicrobial activity in vitro. Compounds were tested against the following panel of bacteria and fungi purchased from the American Type Culture Collection (ATCC). Briefly, bacteria were grown to mid-log phase, diluted with fresh medium to an optical density at 600 nm (OD600) of 0.030-0.060 and then diluted again 1:10. This suspension (195 μL) was added to wells in a 96 well microtiter plate (Sarstedt) and 5 μL of compound dissolved in DMSO was added to give a final concentration of 100-0.1 μM at 2.5% DMSO by volume. A DMSO negative control and standard antibiotic positive controls were included in each plate. All compounds were tested in triplicate for each concentration. Plates were sealed with parafilm, placed in a Ziploc bag to prevent evaporation, and incubated at 30° C. (fungi) or 37° C. (bacteria) for 16-20 hours (48 hours for C. neoformans). The OD600 values for each well were determined with a plate reader (Biotek, EL800) and the data were standardized to the DMSO control wells after subtracting the background from blank medium. Initial single concentrations were tested at 100 μM and active compounds were further tested with at least nine concentrations for a full dose response. Dose response curves were generated using GraphPad Prism 5 software and used to determine the MIC95 concentrations (minimal concentration that inhibits 95% of growth). Compounds 1, 2, 5 and 19 were screened for growth inhibition activity against a panel of bacteria and fungi at a concentration of 100 as shown in Table 2. Compound 5 was included to test the importance of the C4-Cl substituent for activity across a broader range of biological systems.

[5] = test system: Bacillus subtilis ATCC 6633; assay: Antimicrobial growth inhibition, B. subtilis; assay type: cell-based; conditions: ATCC6633; Bacillus subtilis ATCC 6633, 100 μM
Method: as §2

[6] = test system: Staphylococcus aureus subsp. aureus (MRSA) ATCC 43300; assay: Antimicrobial growth inhibition, S. aureus (MRSA); assay type: cell-based; conditions: Staphylococcus aureus (MRSA) ATCC 43300, 100 μM
Method: as §2

[7] = test system: Candida albicans ATCC 10231; assay: Antifungal growth inhibition and MIC95, C. albicans; assay type: cell-based; conditions: ATCC10231; Candida albicans ATCC 10231, 100 μM
Method: as §2
(§3) Compounds 1 and 2 were further tested against the susceptible fungal strains to determine the MIC95 values.

Cryptococcus neoformans = assay: Antifungal growth inhibition and MIC95, C. neoformans strains; assay type: cell-based
Method: as §2, §3

[8] = test system: L1210, CEM and HeLa cells; assay: Cell proliferation assays, comparison across cancer cell lines; assay type: cell-based; conditions: C7 iodine vs compound 19
Method: as §1

MDA-MB-231 cells [9] = assay: Cell cycle distribution (propidium iodide, flow cytometry), MDA-MB-231; assay type: cell-based, human; conditions: 1.75 μM
Method: Cell cycle distributions of MDA-MB-231 cells after 48 hours in the presence of equitoxic (IC80) doses of (a) compound 1 (15 μM) or (b) compound 2 (8 μM) analyzed by flow cytometry of fixed, propidium iodide-stained cells and compared to vehicle controls (DMSO). A minimum of 3000 cells were analyzed per cell population. Each bar represents the mean±SD across 4 independent cell samples.
(§4) Cell-cycle and apoptosis studies were conducted in MDA-MB-231 cells. Cell-cycle analysis of compound 19 at 15 μM concentration lead to arrest of 60% cells in G2/M stage. Similarly, at 1.75 μM concentration, compound 20 arrested 30% of cells in G2/M stage. […] To evaluate the possible mechanism for arrest of cell proliferation, cell-cycle distribution was measured using propidium iodide staining and flow cytometry. […] There are several possibilities that could account for this, including: (i) that cell lysis occurs rapidly following induction of apoptosis, preventing significant accumulation of annexin V-positive bodies, or (ii) that a distinct cell death pathway is triggered by compound 19.
Human metastatic breast cancer MDA-MB-231 cells were obtained from the American Type Culture Collection (ATCC) (Rockville, Md.) and maintained in Dulbecco's Modified Eagle's Medium (DMEM) containing 10% fetal bovine serum (FBS) without antibiotics at 37° C. in a humidified, CO2-controlled incubator. The cytotoxicity of compounds 1 and 2 was assessed by reduction of 3-(4, 5-dimethylthiazol-2-yl)-2,5-diphenyltetrazolium bromide (MTT). MDA-MB-231 cells were seeded in 96-well plates at 5×10^3 cells per well and treated with a range of drug concentrations. After 48 hours, cell viability was measured using the MTT Cell Proliferation Assay kit (ATCC) according to the manufacturer's instructions. Percent cell viability was plotted as a function of drug concentrations and analyzed using a sigmoidal dose response function with PRISM v3.03 software (GraphPad) to resolve drug concentrations yielding 50% cell death (IC50). The cell cycle distributions of MDA-MB-231 cells treated with compounds 1 or 2 were analyzed using propidium iodide staining and flow cytometry. 2×10^6 cells were seeded in 100 mm dishes and treated with compounds 1 or 2 at the IC80 values determined by cell viability assays or an equivalent volume of DMSO. 48 h following treatment the cells were collected, fixed, and stained with propidium iodide (Sigma Aldrich) immediately before analysis by flow cytometry.
As shown in Example 11, compounds 1 and 2 both induced apoptosis but involving a mechanism independent of cell cycle arrest. To test whether the toxicity of these agents for MDA-MB-231 cells proceeded via a similar pathway, their effects were monitored on cell cycle distributions using propidium iodide staining and flow cytometry. […]

MDA-MB-231 cells [10] = assay: Apoptosis (annexin V), MDA-MB-231; assay type: cell-based, human; conditions: MDA-MB-231, tested concentration
Method: as §4

Row | SMILES | IC50 [1] | IC50 [2] | IC50 [3] | inhibition at 100 µM [4] | inhibition at 100 µM [5] | inhibition at 100 µM [6] | inhibition at 100 µM [7] | inhibition at 100 µM (Cryptococcus neoformans; ATCC66031, Cryptococcus neoformans ATCC 66031, 100 μM) | inhibition at 100 µM (Cryptococcus neoformans; C. neoformans B4546, 100 μM) | inhibition at 100 µM (Cryptococcus neoformans; C. neoformans JEC20, 100 μM) | inhibition at 100 µM (Cryptococcus neoformans; C. neoformans VANC-R265, 100 μM) | increase of anticancer activity by a factor, compared to compound 19 [8] | cells arrested in G2/M stage (MDA-MB-231 cells [9]) | annexin V-positive cells (MDA-MB-231 cells [10])
1 | c1ccc(COc2nc(OCc3ccccc3)c3[nH]ccc3n2)cc1 [Compound 15, 2,4-Bis-benzyloxy-5H-pyrrolo[3,2-d]pyrimidine] | 118 ± 8 µM | 86 µM | 98 µM |  |  |  |  |  |  |  |  |  |  | 
2 | Ic1c[nH]c2c(OCc3ccccc3)nc(OCc3ccccc3)nc12 [Compound 16, 7-iodo-2,4-bis-benzyloxy-5H-pyrrolo[3,2-d]pyrimidine] | 21 ± 2 µM | 17 µM | 17 µM |  |  |  |  |  |  |  |  |  |  | 
3 | Clc1ncc2sccc2n1 [Compound 5] |  |  |  | < 43% | < 43% | < 43% | < 43% | < 43% | < 43% | < 43% | < 43% |  |  | 
4 | Clc1nc(Cl)c2[nH]cc(I)c2n1 [Compound 20, 7-iodo-2,4-dichloro pyrrolo[3,2-d]pyrimidine] | 0.93 µM | 4.9 µM | 0.92 µM |  |  |  |  |  |  |  |  | 5 | 30% | robust accumulation
